Assay results as given in patent publication US9902702B2, “Spirocycloheptanes as inhibitors of rock” (BRISTOL-MYERS SQUIBB COMPANY, priority 2014, dated 2018).

These compounds were tested against ROCK2 (Homo sapiens, UniProt O75116) (assay: ROCK assay: phosphorylation of FITC peptide substrate, LABCHIP 3000 mobility shift). Settings: 5 μM ATP, 1.5 μM peptide substrate; read-out: ROCK2 Activity (ROCK IC50 range).
Format: biochemical
Outline: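 Rho kinase variant phosphorylates 1.5 μM FITC-AHA-AKRRRLSSLRA-OH with 5 μM ATP in 20 mM HEPES pH 7.5, 20 mM MgCl2, 0.015% Brij-35, 4 mM DTT, DMSO <2%. EDTA stops the reaction, and phospho and non-phospho peptides are resolved by LabChip 3000 mobility shift. IC50 from dose-response curve fit.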

Chain of ROCK2 (O75116 whole entry, species assumed): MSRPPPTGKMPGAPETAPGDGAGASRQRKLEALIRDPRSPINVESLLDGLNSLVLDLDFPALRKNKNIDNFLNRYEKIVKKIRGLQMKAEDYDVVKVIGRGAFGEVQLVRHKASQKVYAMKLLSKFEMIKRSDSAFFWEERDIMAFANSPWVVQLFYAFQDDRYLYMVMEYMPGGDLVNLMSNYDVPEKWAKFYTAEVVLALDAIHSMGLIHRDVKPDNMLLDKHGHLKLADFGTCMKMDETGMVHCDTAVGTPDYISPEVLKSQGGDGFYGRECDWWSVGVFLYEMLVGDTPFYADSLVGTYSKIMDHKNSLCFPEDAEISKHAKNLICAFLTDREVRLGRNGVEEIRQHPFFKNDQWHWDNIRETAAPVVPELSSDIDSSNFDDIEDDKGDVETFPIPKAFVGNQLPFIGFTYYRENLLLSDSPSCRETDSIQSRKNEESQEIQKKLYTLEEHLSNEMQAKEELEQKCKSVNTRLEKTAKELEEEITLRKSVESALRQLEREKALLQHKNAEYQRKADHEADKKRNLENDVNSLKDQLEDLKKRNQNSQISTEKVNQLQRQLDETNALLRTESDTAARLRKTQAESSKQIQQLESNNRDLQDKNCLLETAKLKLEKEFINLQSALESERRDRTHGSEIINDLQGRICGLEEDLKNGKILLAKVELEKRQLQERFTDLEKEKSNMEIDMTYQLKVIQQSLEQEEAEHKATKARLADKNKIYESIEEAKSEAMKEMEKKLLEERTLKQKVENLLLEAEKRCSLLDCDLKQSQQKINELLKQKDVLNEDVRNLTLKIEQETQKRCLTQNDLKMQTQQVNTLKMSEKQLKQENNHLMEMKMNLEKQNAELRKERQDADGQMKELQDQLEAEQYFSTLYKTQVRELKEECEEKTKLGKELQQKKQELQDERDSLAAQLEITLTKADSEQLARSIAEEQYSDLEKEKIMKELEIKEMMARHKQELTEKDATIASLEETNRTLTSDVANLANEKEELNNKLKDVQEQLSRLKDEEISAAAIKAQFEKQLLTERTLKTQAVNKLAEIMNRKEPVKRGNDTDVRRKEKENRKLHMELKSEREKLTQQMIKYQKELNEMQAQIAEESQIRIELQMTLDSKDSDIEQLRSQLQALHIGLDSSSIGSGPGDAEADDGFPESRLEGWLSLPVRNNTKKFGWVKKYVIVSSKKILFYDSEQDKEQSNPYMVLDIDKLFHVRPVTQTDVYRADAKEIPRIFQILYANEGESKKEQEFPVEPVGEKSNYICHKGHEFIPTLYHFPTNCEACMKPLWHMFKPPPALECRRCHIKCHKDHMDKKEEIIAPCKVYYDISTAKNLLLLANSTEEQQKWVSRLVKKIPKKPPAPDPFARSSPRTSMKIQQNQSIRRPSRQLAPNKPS

SMILES	IC50 [nM]
O=C(Nc1ccc(Br)cc1)N[C@H]1CC2(C1)C[C@H](c1n[nH]c(=O)c3ccccc31)C2 (stereo partly drawn) [Example 227, 1-(4-bromophenyl)-3-((aR)-6-(4-oxo-3,4-dihydrophthalazin-1-yl)spiro[3.3]heptan-2-yl)urea]	15.1 to 100
Cn1cc(-c2ccc(NC(=O)NC3CC4(C3)CC(c3n[nH]c(=O)c5ccccc35)C4)cc2)cn1 [Example 228, 1-(4-(1-methyl-1H-pyrazol-4-yl)phenyl)-3-((aR)-6-(4-oxo-3,4-dihydrophthalazin-1-yl)spiro[3.3]heptan-2-yl)urea]	5.1 to 15
[2H]C([2H])([2H])n1cc(-c2ccc(NC(=O)NC3CC4(C3)CC(c3n[nH]c(=O)c5ccccc35)C4)cc2)cn1 [Example 229, 1-(4-(1-(^2H3)methyl-1H-pyrazol-4-yl)phenyl)-3-((aR)-6-(4-oxo-3,4-dihydrophthalazin-1-yl)spiro[3.3]heptan-2-yl)urea]	5.1 to 15
O=C(Nc1ccc(-c2cnn(C3CC3)c2)cc1)NC1CC2(C1)CC(c1n[nH]c(=O)c3ccccc13)C2 [Example 230, 1-(4-(1-cyclopropyl-1H-pyrazol-4-yl)phenyl)-3-((aR)-6-(4-oxo-3,4-dihydrophthalazin-1-yl)spiro[3.3]heptan-2-yl)urea]	15.1 to 100
O=C(Nc1ccc(-c2cnn(C3CCOCC3)c2)cc1)NC1CC2(C1)CC(c1n[nH]c(=O)c3ccccc13)C2 [Example 231, 1-((aR)-6-(4-oxo-3,4-dihydrophthalazin-1-yl)spiro[3.3]heptan-2-yl)-3-(4-(1-(tetrahydro-2H-pyran-4-yl)-1H-pyrazol-4-yl)phenyl)urea]	15.1 to 100
Cn1cc(-c2ccc(NC(=O)NC3CC4(C3)CC(c3n[nH]c(=O)c5ccccc35)C4)cc2)c(C(F)(F)F)n1 [Example 232, 1-(4-(1-methyl-3-(trifluoromethyl)-1H-pyrazol-4-yl)phenyl)-3-((aR)-6-(4-oxo-3,4-dihydrophthalazin-1-yl)spiro[3.3]heptan-2-yl)urea]	5.1 to 15
Cc1nn(C)c(C)c1-c1ccc(NC(=O)NC2CC3(C2)CC(c2n[nH]c(=O)c4ccccc24)C3)cc1 [Example 233, 1-((aR)-6-(4-oxo-3,4-dihydrophthalazin-1-yl)spiro[3.3]heptan-2-yl)-3-(4-(1,3,5-trimethyl-1H-pyrazol-4-yl)phenyl)urea]	5.1 to 15
O=C(N[C@H]1CC2(C1)C[C@H](c1n[nH]c(=O)c3ccccc31)C2)N1CCc2cc(Br)ccc21 (stereo partly drawn) [Example 234, 5-Bromo-N-((aR)-6-(4-oxo-3,4-dihydrophthalazin-1-yl)spiro[3.3]heptan-2-yl)indoline-1-carboxamide]	2.01 to 5
Cn1cc(-c2ccc3c(c2)CCN3C(=O)NC2CC3(C2)CC(c2n[nH]c(=O)c4ccccc24)C3)cn1 [Example 235, 5-(1-methyl-1H-pyrazol-4-yl)-N-((aR)-6-(4-oxo-3,4-dihydrophthalazin-1-yl)spiro[3.3]heptan-2-yl)indoline-1-carboxamide]	0.2 to 2
O=C(NC1CC2(C1)CC(c1n[nH]c(=O)c3ccccc13)C2)N1CCc2cc(-c3cnn(C4CC4)c3)ccc21 [Example 236, 5-(1-cyclopropyl-1H-pyrazol-4-yl)-N-((aR)-6-(4-oxo-3,4-dihydrophthalazin-1-yl)spiro[3.3]heptan-2-yl)indoline-1-carboxamide]	0.2 to 2
Cc1nn(C)c(C)c1-c1ccc2c(c1)CCN2C(=O)NC1CC2(C1)CC(c1n[nH]c(=O)c3ccccc13)C2 [Example 237, N-((aR)-6-(4-oxo-3,4-dihydrophthalazin-1-yl)spiro[3.3]heptan-2-yl)-5-(1,3,5-trimethyl-1H-pyrazol-4-yl)indoline-1-carboxamide]	2.01 to 5
Cn1cc(-c2ccc3c(c2)CCN3C(=O)NC2CC3(C2)CC(c2n[nH]c(=O)c4ccccc24)C3)c(C(F)(F)F)n1 [Example 238, 5-(1-methyl-3-(trifluoromethyl)-1H-pyrazol-4-yl)-N-((aR)-6-(4-oxo-3,4-dihydrophthalazin-1-yl)spiro[3.3]heptan-2-yl)indoline-1-carboxamide]	2.01 to 5
[2H]C([2H])([2H])n1cc(-c2ccc3c(c2)CCN3C(=O)NC2CC3(C2)CC(c2n[nH]c(=O)c4ccccc24)C3)cn1 [Example 239, 5-(1-(^2H3)methyl-1H-pyrazol-4-yl)-N-((aR)-6-(4-oxo-3,4-dihydrophthalazin-1-yl)spiro[3.3]heptan-2 yl)indoline-1-carboxamide]	0.2 to 2
O=C(NC1CC2(C1)CC(c1n[nH]c(=O)c3ccccc13)C2)N1CCc2cc(-c3cnn(C4CCOCC4)c3)ccc21 [Example 240, N-((aR)-6-(4-oxo-3,4-dihydrophthalazin-1-yl)spiro[3.3]heptan-2-yl)-5-(1-(tetrahydro-2H-pyran-4-yl)-1H-pyrazol-4-yl)indoline-1-carboxamide]	2.01 to 5
O=C(NC1CC2(C1)CC(c1n[nH]c(=O)c3ccccc13)C2)N1CCc2cc(-c3cnn(CC4CC4)c3)ccc21 [Example 241, 5-(1-(cyclopropylmethyl)-1H-pyrazol-4-yl)-N-((aR)-6-(4-oxo-3,4-dihydrophthalazin-1-yl)spiro[3.3]heptan-2-yl)indoline-1-carboxamide]	2.01 to 5
CC(C)(C)n1cc(-c2ccc3c(c2)CCN3C(=O)NC2CC3(C2)CC(c2n[nH]c(=O)c4ccccc24)C3)cn1 [Example 242, 5-(1-(tert-butyl)-1H-pyrazol-4-yl)-N-((aR)-6-(4-oxo-3,4-dihydrophthalazin-1-yl)spiro[3.3]heptan-2-yl)indoline-1-carboxamide]	2.01 to 5
O=C(NC1CC2(C1)CC(c1n[nH]c(=O)c3ccccc13)C2)N1CCc2cc(-c3cnn(C4CCOC4)c3)ccc21 [Example 243, N-((aR)-6-(4-oxo-3,4-dihydrophthalazin-1-yl)spiro[3.3]heptan-2-yl)-5-(1-(tetrahydrofuran-3-yl)-1H-pyrazol-4-yl)indoline-1-carboxamide]	2.01 to 5
CC(C)n1cc(-c2ccc3c(c2)CCN3C(=O)NC2CC3(C2)CC(c2n[nH]c(=O)c4ccccc24)C3)c(C(F)(F)F)n1 [Example 244, 5-(1-isopropyl-3-(trifluoromethyl)-1H-pyrazol-4-yl)-N-((aR)-6-(4-oxo-3,4-dihydrophthalazin-1-yl)spiro[3.3]heptan-2-yl)indoline-1-carboxamide]	5.1 to 15
O=C(NC1CC2(C1)CC(c1n[nH]c(=O)c3ccccc13)C2)N1CCc2cc(CCC(F)(F)F)ccc21 [Example 245, N-((aR)-6-(4-oxo-3,4-dihydrophthalazin-1-yl)spiro[3.3]heptan-2-yl)-5-(3,3,3-trifluoropropyl)indoline-1-carboxamide]	5.1 to 15
Cc1nn(C)c(C)c1-c1ccc2c(c1)CN(C(=O)NC1CC3(C1)CC(c1n[nH]c(=O)c4ccccc14)C3)C2 [Example 246, N-((aR)-6-(4-oxo-3,4-dihydrophthalazin-1-yl)spiro[3.3]heptan-2-yl)-5-(1,3,5-trimethyl-1H-pyrazol-4-yl)isoindoline-2-carboxamide]	2.01 to 5
O=C(NC1CC2(C1)CC(c1n[nH]c(=O)c3ccccc13)C2)N1Cc2ccc(-c3cnn(C4CC4)c3)cc2C1 [Example 247, 5-(1-cyclopropyl-1H-pyrazol-4-yl)-N-((aR)-6-(4-oxo-3,4-dihydrophthalazin-1-yl)spiro[3.3]heptan-2-yl)isoindoline-2-carboxamide]	2.01 to 5
Cn1cc(-c2ccc3c(c2)CN(C(=O)NC2CC4(C2)CC(c2n[nH]c(=O)c5ccccc25)C4)C3)c(C(F)(F)F)n1 [Example 248, 5-(1-methyl-3-(trifluoromethyl)-1H-pyrazol-4-yl)-N-((aR)-6-(4-oxo-3,4-dihydrophthalazin-1-yl)spiro[3.3]heptan-2-yl)isoindoline-2-carboxamide]	5.1 to 15
CC(C)n1cc(-c2ccc3c(c2)CN(C(=O)NC2CC4(C2)CC(c2n[nH]c(=O)c5ccccc25)C4)C3)c(C(F)(F)F)n1 [Example 249, 5-(1-isopropyl-3-(trifluoromethyl)-1H-pyrazol-4-yl)-N-((aR)-6-(4-oxo-3,4-dihydrophthalazin-1-yl)spiro[3.3]heptan-2-yl)isoindoline-2-carboxamide]	5.1 to 15
Cn1cc(-c2ccc3c(c2)CN(C(=O)NC2CC4(C2)CC(c2n[nH]c(=O)c5ccccc25)C4)C3)cn1 [Example 250, 5-(1-methyl-1H-pyrazol-4-yl)-N-((aR)-6-(4-oxo-3,4-dihydrophthalazin-1-yl)spiro[3.3]heptan-2-yl)isoindoline-2-carboxamide]	5.1 to 15
O=C(NC1CC2(C1)CC(c1n[nH]c(=O)c3ccccc13)C2)N1Cc2ccc(-c3cnn(C4CCOCC4)c3)cc2C1 [Example 251, N-((aR)-6-(4-oxo-3,4-dihydrophthalazin-1-yl)spiro[3.3]heptan-2-yl)-5-(1-(tetrahydro-2H-pyran-4-yl)-1H-pyrazol-4-yl)isoindoline-2-carboxamide]	5.1 to 15
CC(C)(C)n1cc(-c2ccc3c(c2)CN(C(=O)NC2CC4(C2)CC(c2n[nH]c(=O)c5ccccc25)C4)C3)cn1 [Example 252, 5-(1-(tert-butyl)-1H-pyrazol-4-yl)-N-((aR)-6-(4-oxo-3,4-dihydrophthalazin-1-yl)spiro[3.3]heptan-2-yl)isoindoline-2-carboxamide]	5.1 to 15
[2H]C([2H])([2H])n1cc(-c2ccc3c(c2)CN(C(=O)NC2CC4(C2)CC(c2n[nH]c(=O)c5ccccc25)C4)C3)cn1 [Example 253, 5-(1-(^2H3)methyl-1H-pyrazol-4-yl)-N-((aR)-6-(4-oxo-3,4-dihydrophthalazin-1-yl)spiro[3.3]heptan-2-yl)isoindoline-2-carboxamide]	5.1 to 15
CC1(C)CN(C(=O)NC2CC3(C2)CC(c2n[nH]c(=O)c4ccccc24)C3)c2ccccc21 (stereo not drawn) [Example 255]	5.1 to 15
O=C(NC1CC2(C1)CC(c1n[nH]c(=O)c3ccccc13)C2)N1CCc2cccnc21 [Example 256, N-((aR)-6-(4-oxo-3,4-dihydrophthalazin-1-yl)spiro[3.3]heptan-2-yl)-2,3-dihydro-1H-pyrrolo[2,3-b]pyridine-1-carboxamide]	15.1 to 100
O=C(NC1CC2(C1)CC(c1n[nH]c(=O)c3ccccc13)C2)N1Cc2cccnc2C1 (stereo not drawn) [Example 257]	15.1 to 100
